Reference: patent US20230293517A1, “ANTAGONIST COMPOUNDS” (AdoRx Therapeutics Limited, priority 2020, published 2023)

Key:
[1] = target: human Adenosine A2a receptor (Homo sapiens (Human), UniProt P29274); assay: Adenosine receptor TR-FRET binding assay (A2a); details: inhibition of binding of 100 nM CA200645, CHO cell membranes
Method in brief: (§1)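 Ki values come from Cheng–Prusoff conversion of IC50s for displacement of fluorescent antagonist CA200645 from terbium-labelled human adenosine receptors in CHO membranes. Tracer was 30 nM at A2b and 100 nM at the other three subtypes; incubation lasted 2 h at room temperature.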

[2] = target: human Adenosine A3 receptor (Homo sapiens (Human), UniProt P0DMS8); assay: Adenosine receptor TR-FRET binding assay (A3); details: inhibition of binding of 100 nM CA200645, CHO cell membranes
Method in brief: as §1

[3] = test system: CD8+T cells in human whole blood; assay: Measurement of pCREB in CD8+T cells in human whole blood; type: cell-based; details: 3 μM NECA, rolipram
Method in brief: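 Heparinised human whole blood pre-incubated 20 min at 37 °C with serially diluted A2a antagonists plus rolipram, then stimulated 60 min with 3 μM NECA (final). After fixation and red-cell lysis, white cells were permeabilized and stained for phospho-CREB and CD8; pCREB in CD8+ T cells measured by flow cytometry.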

[4] = target: human Adenosine A2b receptor (Homo sapiens (Human), UniProt P29275); assay: Adenosine receptor TR-FRET binding assay (A2b); details: TR-FRET, inhibition of binding of 30 nM CA200645, CHO cell membranes
Method in brief: as §1

[5] = target: human Adenosine A1 receptor (Homo sapiens (Human), UniProt P30542); assay: Adenosine receptor TR-FRET binding assay (A1); details: inhibition of binding of 100 nM CA200645, CHO cell membranes
Method in brief: as §1

human PBMCs = assay: CD3/CD28 stimulated IL-2 release NECA reversal assay in human PBMCs; type: cell-based; details: PBMC, 1 uM NECA, 24 hours, IL-2 in culture supernatant
Protocol: Biological Example—CD3/CD28 Stimulated IL-2 Release NECA Reversal Assay in Human PBMCs
Blood is drawn from healthy volunteers using sodium citrate as the anticoagulant (0.3% final concentration). After centrifugation of the blood over Histopaque-1077, PBMCs are collected from the Histopaque/plasma interface and washed twice in PBS (300 g for 10 mins at room temp). Cells are plated at 50,000 cells/well in 150 μl RPMI/10% FCS in 96-well cell culture plates that have been precoated with 1 ug/ml CD3 antibody. 50 μl diluted compound mix is added to the cells, to obtain final concentrations of 1 ug/ml CD28 antibody, 1 uM NECA and 0.003-10 μM adenosine receptor antagonist. Assay plates are incubated for 24 hours at 37° C. in a humidified incubator. Culture supernatant is tested for IL-2 levels using the human IL-2 Tissue Culture Kit (Meso Scale Discovery). Data for dose-response curves is calculated as % inhibition with 100% inhibition defined from no agonist control wells (+CD3/28-NECA)

Chain of human Adenosine A2b receptor (P29275 whole entry): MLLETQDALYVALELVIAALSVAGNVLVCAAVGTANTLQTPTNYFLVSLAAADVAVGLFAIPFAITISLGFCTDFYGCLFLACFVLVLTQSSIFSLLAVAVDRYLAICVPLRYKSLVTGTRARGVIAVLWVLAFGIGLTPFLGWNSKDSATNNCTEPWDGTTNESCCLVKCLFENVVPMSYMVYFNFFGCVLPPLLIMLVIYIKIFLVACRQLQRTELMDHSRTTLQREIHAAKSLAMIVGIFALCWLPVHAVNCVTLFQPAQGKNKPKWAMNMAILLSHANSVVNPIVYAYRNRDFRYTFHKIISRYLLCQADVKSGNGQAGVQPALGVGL
Chain of human Adenosine A3 receptor (P0DMS8 whole entry): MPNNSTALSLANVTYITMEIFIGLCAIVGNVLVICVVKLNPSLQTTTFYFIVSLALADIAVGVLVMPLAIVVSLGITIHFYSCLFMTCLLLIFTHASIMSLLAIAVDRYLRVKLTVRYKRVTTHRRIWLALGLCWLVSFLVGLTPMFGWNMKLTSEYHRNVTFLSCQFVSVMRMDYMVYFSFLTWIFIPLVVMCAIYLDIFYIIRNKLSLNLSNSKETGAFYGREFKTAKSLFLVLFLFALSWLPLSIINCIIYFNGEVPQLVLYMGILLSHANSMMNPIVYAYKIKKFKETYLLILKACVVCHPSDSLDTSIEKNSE
Chain of human Adenosine A2a receptor (P29274 whole entry): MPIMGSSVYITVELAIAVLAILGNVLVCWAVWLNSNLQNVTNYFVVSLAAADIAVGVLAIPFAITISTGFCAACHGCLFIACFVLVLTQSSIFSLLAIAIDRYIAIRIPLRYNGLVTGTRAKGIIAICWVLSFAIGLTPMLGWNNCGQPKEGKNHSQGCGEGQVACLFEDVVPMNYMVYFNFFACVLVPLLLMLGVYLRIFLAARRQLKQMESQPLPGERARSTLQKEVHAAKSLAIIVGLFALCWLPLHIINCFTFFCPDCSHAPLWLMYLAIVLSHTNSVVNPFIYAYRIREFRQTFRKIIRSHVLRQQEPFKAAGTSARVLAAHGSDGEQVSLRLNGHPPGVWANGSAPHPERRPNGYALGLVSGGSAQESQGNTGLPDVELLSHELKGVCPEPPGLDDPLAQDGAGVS
Chain of human Adenosine A1 receptor (P30542 whole entry): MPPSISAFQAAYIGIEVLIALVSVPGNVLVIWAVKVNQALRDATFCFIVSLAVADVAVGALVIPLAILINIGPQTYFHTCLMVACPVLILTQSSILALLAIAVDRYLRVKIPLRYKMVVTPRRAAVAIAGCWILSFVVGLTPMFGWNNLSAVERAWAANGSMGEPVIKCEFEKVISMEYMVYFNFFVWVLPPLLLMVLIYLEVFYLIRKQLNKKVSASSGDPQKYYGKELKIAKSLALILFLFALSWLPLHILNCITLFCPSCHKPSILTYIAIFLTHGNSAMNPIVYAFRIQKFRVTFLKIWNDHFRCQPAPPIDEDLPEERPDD

SMILES	Ki [1]	Ki [2]	IC50 [3]	Ki [4]	Ki [5]	IC50 (human PBMCs)
Cc1cc(-c2sc(NC(=O)N3CCC(C)(N)CC3)nc2-c2cccc(C#N)c2)cc(Cl)n1 [Example 5.9, 4-Amino-N-[5-(2-chloro-6-methyl-4-pyridyl)-4-(3-cyanophenyl)thiazol-2-yl]-4-methyl-piperidine-1-carboxamide]	0.00232 µM	0.125 µM	1 µM	0.0043 µM	0.082 µM	0.0183 µM
Cc1cc(-c2sc(NC(=O)N3CCC4(CC3)CN(C)C(=O)O4)nc2-c2cccc(C#N)c2)cc(C)n1 [Example 6.12, N-[4-(3-Cyanophenyl)-5-(2,6-dimethyl-4-pyridyl)thiazol-2-yl]-3-methyl-2-oxo-1-oxa-3,8-diazaspiro[4.5]decane-8-carboxamide]	0.00023 µM	0.298 µM	0.11 µM	0.0024 µM	0.137 µM	0.0027 µM
Cc1cc(-c2sc(NC(=O)N3CCN4CCS(=O)(=O)CC4C3)nc2-c2cccc(C#N)c2)cc(C)n1 (stereo not drawn) [Example 6.14, N-[4-(3-Cyanophenyl)-5-(2,6-dimethyl-4-pyridyl)thiazol-2-yl]-2,2-dioxo-3,4,6,7,9,9a-hexahydro-1H-pyrazino[2,1-c][1,4]thiazine-8-carboxamide]	0.0006 µM	0.772 µM	0.05 µM	0.0026 µM	0.167 µM	0.0053 µM
Cc1cc(-c2sc(NC(=O)N3CCN4C(=O)CCC4C3)nc2-c2cccc(C#N)c2)cc(C)n1 (stereo not drawn) [Example 6.18, N-[4-(3-Cyanophenyl)-5-(2,6-dimethyl-4-pyridyl)thiazol-2-yl]-6-oxo-1,3,4,7,8,8a-hexahydropyrrolo[1,2-a]pyrazine-2-carboxamide]	0.00033 µM	0.332 µM	0.04 µM	0.0061 µM	0.07 µM	0.005 µM

Now from value to compound, other results behind:

Ki [1]	Ki [2]	IC50 [3]	Ki [4]	Ki [5]	SMILES	IC50 (human PBMCs)
0.00067 µM	0.36 µM	0.19 µM	0.0031 µM	0.103 µM	Cc1cc(-c2sc(NC(=O)N3CCC4(CC3)CNC(=O)C4)nc2-c2cccc(C#N)c2)cc(C)n1 [Example 6.4, N-[4-(3-Cyanophenyl)-5-(2,6-dimethyl-4-pyridyl)thiazol-2-yl]-3-oxo-2,8-diazaspiro[4.5]decane-8-carboxamide]	0.0014 µM
0.0003 µM	0.316 µM	0.04 µM	0.0012 µM	0.014 µM	Cc1cc(-c2sc(NC(=O)N3CCC4(CC3)COC4)nc2-c2cccc(C#N)c2)cc(C)n1 [Example 6.10, N-[4-(3-Cyanophenyl)-5-(2,6-dimethyl-4-pyridyl)thiazol-2-yl]-2-oxa-7-azaspiro[3.5]nonane-7-carboxamide]	0.0029 µM
0.00039 µM	0.319 µM	0.05 µM	0.0026 µM	0.042 µM	Cc1cc(-c2sc(NC(=O)N3CCC4(CC3)CNC(=O)N4)nc2-c2cccc(C#N)c2)cc(C)n1 [Example 6.11, N-[4-(3-Cyanophenyl)-5-(2,6-dimethyl-4-pyridyl)thiazol-2-yl]-2-oxo-1,3,8-triazaspiro[4.5]decane-8-carboxamide]	0.0052 µM
0.00046 µM	0.405 µM	0.07 µM	0.0065 µM	0.035 µM	Cc1cc(-c2sc(NC(=O)N3CCN4C(=O)OCCC4C3)nc2-c2cccc(C#N)c2)cc(C)n1 (stereo not drawn) [Example 6.17, N-[4-(3-Cyanophenyl)-5-(2,6-dimethyl-4-pyridyl)thiazol-2-yl]-6-oxo-1,3,4,8,9,9a-hexahydropyrazino[1,2-c][1,3]oxazine-2-carboxamide]	0.0053 µM
0.00014 µM	0.287 µM	0.02 µM	0.0019 µM	0.053 µM	Cc1cc(-c2sc(NC(=O)N3CCC4(CC3)CNC4=O)nc2-c2cccc(C#N)c2)cc(C)n1 [Example 6.20, N-[4-(3-Cyanophenyl)-5-(2,6-dimethyl-4-pyridyl)thiazol-2-yl]-3-oxo-2,7-diazaspiro[3.5]nonane-7-carboxamide]	0.0018 µM
